# Where two headings read alike, the source gives them in different places. Bridge positions count the residues as written; N and C are the ends. Square brackets hold non-standard residues; d marks the D form. Peptide text beside a SMILES is read from it. Pro(4R-NH2) = N[C@H]1CN[C@H](C(=O)O)C1; Hyp = O=C(O)[C@@H]1C[C@@H](O)CN1; Pen = CC(C)(S)[C@H](N)C(=O)O; dDab = NCC[C@@H](N)C(=O)O; Dab = NCC[C@H](N)C(=O)O; Nlys = NCCCCNCC(=O)O
# Columns and labels:
# [1] = system: Escherichia coli ATCC 25922; conditions: ATCC 25922
# In short: (§1)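 Two-fold serial dilutions of peptide, in water with polysorbate 80 (0.002% final), met bacteria adjusted to 0.5 McFarland then diluted to about 5×10^5 CFU/mL. Medium was cation-adjusted Mueller-Hinton II broth; peptide stocks were 1 mg/mL in sterile water.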
# [2] = system: Klebsiella pneumoniae SSI3010; conditions: SSI3010
# In short: as §1
# [3] = system: Escherichia coli MCR-1 Af 45
# In short: as §1
# [4] = system: human red blood cells (hRBC); assay: Hemolysis of human red blood cells; format: cell-based; conditions: red cells of human, 1 h
# In short: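 PBS-washed human red blood cells (20% v/v) were incubated with peptide at 200 μg/mL for 1 h at 37 °C with shaking. Supernatant OD was read at 540 nm after 8-fold dilution. Hemolysis is expressed as percent of the water control.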
# [5] = Mueller-Hinton broth II, 18-20 hours at 35° C.
Structure (SMILES),Escherichia coli ATCC 25922 MIC [1] [mg/L],Klebsiella pneumoniae SSI3010 MIC [2] [mg/L],Escherichia coli MCR-1 Af 45 MIC ([3]; MCR-1 Af 45) [mg/L],"Escherichia coli MCR-1 Af 45 MIC [3, 5] [mg/L]",Hemolysis at 0.2 g/L [4] [%]
"CCCC[C@H](NC(=O)[C@H](CCCNC(=N)N)NC(=O)[C@H](CCN)NC(=O)[C@@H]1CSSC[C@H](NC(=O)[C@H](Cc2ccc(O)cc2)NC(=O)[C@@H](NC(=O)[C@@H](NC(=O)[C@@H]2CCCN2C(=O)[C@@H](N)C(C)C)[C@@H](C)CC)[C@@H](C)CC)C(=O)N[C@@H](CC(N)=O)C(=O)N[C@@H](CCCNC(=N)N)C(=O)N[C@@H](CCCNC(=N)N)C(=O)N[C@@H]([C@@H](C)O)C(=O)N[C@H](CCN)C(=O)N[C@@H](CCCCN)C(=O)N1)C(=O)O [Example 134] (HELM PEPTIDE1{V.P.I.I.Y.C.N.R.R.T.[NCC[C@@H](N[*:1])C(=O)[*:2]].K.C.[Dab].R.[Nle]}$PEPTIDE1,PEPTIDE1,6:R3-13:R3$$$V2.0)",0.0625,0.125,,0.0625,0
"CC[C@H](C)[C@H](NC(=O)[C@@H](NC(=O)[C@@H]1CCCN1C(=O)[C@@H](NC(=O)[C@@H]1CCCN1C(=O)[C@H](CCCCN)NC(=O)[C@@H](N)CCCCN)C(C)C)[C@@H](C)CC)C(=O)N[C@@H](Cc1ccc(O)cc1)C(=O)N[C@H]1CSSC[C@@H](C(=O)N[C@@H](CCN)C(=O)N[C@@H](CCCNC(=N)N)C(=O)N[C@H](C(=O)O)C2CC2)NC(=O)[C@H](CCCCN)NC(=O)[C@@H](CCN)NC(=O)[C@H]([C@@H](C)O)NC(=O)[C@H](CCN)NC(=O)[C@H](CCCNC(=N)N)NC(=O)[C@H](CC(N)=O)NC1=O [Example 81] (HELM PEPTIDE1{K.K.P.V.P.I.I.Y.C.N.R.[Dab].T.[NCC[C@@H](N[*:1])C(=O)[*:2]].K.C.[Dab].R.[O=C(O)[C@@H](N[*:1])C1CC1]}$PEPTIDE1,PEPTIDE1,9:R3-16:R3$$$V2.0)",≤0.03125,0.125,≤0.03125,,0
"CC[C@H](C)[C@H](NC(=O)[C@@H](NC(=O)[C@@H]1C[C@@H](N)CN1C(=O)[C@@H](NC(=O)[C@@H]1C[C@@H](N)CN1)C(C)C)[C@@H](C)CC)C(=O)N[C@@H](Cc1ccc(O)cc1)C(=O)N[C@@H]1C(=O)N[C@@H](CC(N)=O)C(=O)N[C@@H](CCCNC(=N)N)C(=O)N[C@@H](CCN)C(=O)N[C@@H]([C@@H](C)O)C(=O)N[C@H](CCN)C(=O)N[C@@H](CCCCN)C(=O)N[C@H](C(=O)N[C@@H](CCC(N)=O)C(=O)N[C@@H](CCCNC(=N)N)C(=O)N[C@@H](Cc2ccc(O)cc2)C(=O)O)CSSC1(C)C [Example 23, Pro((4R)NH2)-Val-Pro((4R)NH2)-Ile-Ile-Tyr-Pen-Asn-Arg-Dab-Thr-^DDab-Lys-Cys-Gln-Arg-Tyr] (H-[Pro(4R-NH2)]V[Pro(4R-NH2)]IIY[Pen]NR[Dab]T[dDab]KCQRY-OH; disulfide 7-14)",0.25,0.25,0.25,,0
"CC[C@H](C)[C@H](NC(=O)[C@@H](NC(=O)[C@@H]1CCCN1C(=O)[C@@H](NC(=O)[C@@H]1CCCN1C(=O)[C@H](CCCCN)NC(=O)[C@@H](N)CCCCN)C(C)C)[C@@H](C)CC)C(=O)N[C@@H](Cc1ccc(O)cc1)C(=O)N[C@H]1CSSC[C@@H](C(=O)N[C@@H](CCN)C(=O)N[C@@H](CCCNC(=N)N)C(=O)N[C@@H](Cc2ccc(O)cc2)C(=O)O)NC(=O)[C@H](CCCCN)NC(=O)[C@@H](CCN)NC(=O)[C@H]([C@@H](C)O)NC(=O)CN(CCCN)C(=O)[C@H](CCCNC(=N)N)NC(=O)[C@H](CC(N)=O)NC1=O [Example 106] (HELM PEPTIDE1{K.K.P.V.P.I.I.Y.C.N.R.[NCCCN(CC(=O)[*:2])[*:1]].T.[NCC[C@@H](N[*:1])C(=O)[*:2]].K.C.[Dab].R.Y}$PEPTIDE1,PEPTIDE1,9:R3-16:R3$$$V2.0; N-terminus assumed)",0.25,0.125,0.125,,0
"CC[C@H](C)[C@H](NC(=O)[C@@H]1C[C@@H](N)CN1C(=O)[C@@H](NC(=O)[C@@H]1C[C@@H](O)CN1C(=O)CNCCCCN)C(C)C)C(=O)N[C@H](C(=O)N[C@@H](Cc1ccc(O)cc1)C(=O)N[C@@H]1C(=O)N[C@@H](CC(N)=O)C(=O)N[C@@H](CCCNC(=N)N)C(=O)N[C@@H](CCN)C(=O)N[C@@H]([C@@H](C)O)C(=O)N[C@H](CCN)C(=O)N[C@@H](CCCCN)C(=O)N[C@H](C(=O)N[C@@H](CCN)C(=O)N[C@@H](CCCNC(=N)N)C(=O)N[C@@H](Cc2ccc(O)cc2)C(=O)O)CSSC1(C)C)[C@@H](C)O [Example 46, Nlys-Hyp-Val-Pro((4R)NH2)-Ile-Thr-Tyr-Pen-Asn-Arg-Dab-Thr-^DDab-Lys-Cys-Dab-Arg-Tyr] (H-[Nlys][Hyp]V[Pro(4R-NH2)]ITY[Pen]NR[Dab]T[dDab]KC[Dab]RY-OH; disulfide 8-15)",≤0.03125,0.125,≤0.03125,,0
"CC[C@H](C)[C@H](NC(=O)[C@@H]1C[C@@H](O)CN1C(=O)[C@@H](N)C(C)C)C(=O)N[C@H](C(=O)N[C@@H](Cc1ccc(O)cc1)C(=O)N[C@@H]1C(=O)N[C@@H](CC(C)C)C(=O)N[C@@H](CCCNC(=N)N)C(=O)N[C@@H](CCN)C(=O)N[C@@H]([C@@H](C)O)C(=O)N[C@H](CCN)C(=O)N[C@@H](CCCCN)C(=O)N[C@H](C(=O)N[C@@H](CCN)C(=O)N[C@@H](CCCNC(=N)N)C(=O)N[C@@H](Cc2ccc(O)cc2)C(=O)O)CSSC1(C)C)[C@@H](C)O [Example 162] (HELM PEPTIDE1{V.[Hyp].I.T.Y.[Pen].L.R.[Dab].T.[NCC[C@@H](N[*:1])C(=O)[*:2]].K.C.[Dab].R.Y}$PEPTIDE1,PEPTIDE1,6:R3-13:R3$$$V2.0)",0.25,0.25,,0.125,0

# Further lines, with some results ahead:
Escherichia coli ATCC 25922 MIC [1] [mg/L],Klebsiella pneumoniae SSI3010 MIC [2] [mg/L],Escherichia coli MCR-1 Af 45 MIC ([3]; MCR-1 Af 45) [mg/L],Structure (SMILES),"Escherichia coli MCR-1 Af 45 MIC [3, 5] [mg/L]",Hemolysis at 0.2 g/L [4] [%]
0.125,0.125,≤0.03125,"CC[C@H](C)[C@H](NC(=O)[C@@H](NC(=O)[C@@H]1CCCN1C(=O)[C@@H](NC(=O)[C@@H]1CCCN1C(=O)CNC(=O)[C@@H](N)CCCCN)C(C)C)[C@@H](C)CC)C(=O)N[C@@H](Cc1ccc(O)cc1)C(=O)N[C@@H]1C(=O)N[C@@H](CC(N)=O)C(=O)N[C@@H](CCCNC(=N)N)C(=O)N[C@@H](CCN)C(=O)N[C@@H]([C@@H](C)O)C(=O)N[C@H](CCN)C(=O)N[C@@H](CCCCN)C(=O)N[C@H](C(=O)N[C@@H](CCN)C(=O)N[C@@H](CCCNC(=N)N)C(=O)N[C@@H](Cc2ccc(O)cc2)C(=O)O)CSSC1(C)C [Example 91] (HELM PEPTIDE1{K.G.P.V.P.I.I.Y.[Pen].N.R.[Dab].T.[NCC[C@@H](N[*:1])C(=O)[*:2]].K.C.[Dab].R.Y}$PEPTIDE1,PEPTIDE1,9:R3-16:R3$$$V2.0)",,0
0.0625,0.125,0.125,"CCCC[C@H](NC(=O)[C@H](CCCNC(=N)N)NC(=O)[C@H](CCC(N)=O)NC(=O)[C@@H]1CSSC[C@H](NC(=O)[C@H](Cc2ccc(O)cc2)NC(=O)[C@@H](NC(=O)[C@@H](NC(=O)[C@@H]2CCCN2C(=O)[C@@H](NC(=O)[C@@H]2CCCN2C(=O)[C@H](CCCCN)NC(=O)[C@@H](N)CCCCN)C(C)C)[C@@H](C)CC)[C@@H](C)CC)C(=O)N[C@@H](CC(N)=O)C(=O)N[C@@H](CCCNC(=N)N)C(=O)N[C@@H](CCCNC(=N)N)C(=O)N[C@@H]([C@@H](C)O)C(=O)N[C@H](CCN)C(=O)N[C@@H](CCN)C(=O)N1)C(=O)O [Example 69] (HELM PEPTIDE1{K.K.P.V.P.I.I.Y.C.N.R.R.T.[NCC[C@@H](N[*:1])C(=O)[*:2]].[Dab].C.Q.R.[Nle]}$PEPTIDE1,PEPTIDE1,9:R3-16:R3$$$V2.0)",,0
0.125,0.25,0.125,"CC[C@H](C)[C@H](NC(=O)[C@@H](NC(=O)[C@@H]1CCCN1C(=O)[C@@H](NC(=O)CN(C)C(=O)CN(C)C(=O)[C@@H](N)CCCCN)C(C)C)[C@@H](C)CC)C(=O)N[C@@H](Cc1ccc(O)cc1)C(=O)N[C@@H]1C(=O)N[C@@H](CC(N)=O)C(=O)N[C@@H](CCCNC(=N)N)C(=O)N[C@@H](CCN)C(=O)N[C@@H]([C@@H](C)O)C(=O)N[C@H](CCN)C(=O)N[C@@H](CCCCN)C(=O)N[C@H](C(=O)N[C@@H](CCN)C(=O)N[C@@H](CCCNC(=N)N)C(=O)N[C@@H](Cc2ccc(O)cc2)C(=O)O)CSSC1(C)C [Example 95, Lys-Sar-Sar-Val-Pro-Ile-Ile-Tyr-Pen-Asn-Arg-Dab-Thr-^DDab-Lys-Cys-Dab-Arg-Tyr] (HELM PEPTIDE1{K.[Sar].[Sar].V.P.I.I.Y.[Pen].N.R.[Dab].T.[NCC[C@@H](N[*:1])C(=O)[*:2]].K.C.[Dab].R.Y}$PEPTIDE1,PEPTIDE1,9:R3-16:R3$$$V2.0)",,0

# — US20230295234A1, “ANTIMICROBIAL PEPTIDOMIMETICS” (SPEXIS AG, priority 2020, published 2023)
